Measured values taken from patent publication US8937154B2, “Stabilized therapeutic small helical antiviral peptides” (priority 2006, dated 2015).
Where a SMILES comes first, the peptide text is derived from it. Bridges are numbered along the chain shown (N, C = ends). [ ]: non-standard residue; d: D form. R8 = C=CCCCCCC[C@@](C)(N)C(=O)O; S5 = C=CCCC[C@](C)(N)C(=O)O

Experiments:
HIV-IIIB = experiment: Viral re-infection assay: infectivity of virions released by treated HIV-1 infected MT-2 cells; assay type: cell-based
Description: The infectivity potential of the virions released by HIV-1 infected MT-2 cells treated with different concentrations of small stapled peptides. […] Control cells were untreated or treated with 1 ug/ml of AMD3100 (CXCR-4 receptor inhibitor). Following overnight incubation the medium was completely removed and replaced with fresh medium. On the fourth day post-infection the supernatants were collected. One aliquot of each sample was mixed 1:1 with a solution of 5% Triton X-100 for p24 quantification, and stored at 4° C., another aliquot was immediately frozen at −80° C. and used to compare the infectivity of the viral particles released by treated cells to the viral particles released by untreated cells. Following p24 quantification by sandwich-ELISA MT-2 cells were infected with viral samples normalized for the p24 content to calculate the TCID50. Following overnight incubation ¾ of the medium containing the inoculum was replaced with fresh medium. On the fourth day post infection supernatants were collected for p24 quantification and the TCID50 was calculated by the Spearman-Karber statistical method.
Therefore, to infect MT-2 cells we used the maximum quantities of supernatants possible.

HIV-1 IIIB = assay type: cell-based
Description: The inhibitory activity of the constrained peptide described in Example 1 on infection by laboratory-adapted HIV-1 strains was determined as described in Jiang et al. (1991).

Structure (SMILES) | IC50 (HIV-1 IIIB) [µM] | other results
c1cc(CN2CCCNCCNCCCNCC2)ccc1CN1CCCNCCNCCCNCC1 [AMD3100, reference compound] | – | viral infectivity of particles released by treated cells (HIV-IIIB; 1 ug/ml): very little to no viral infectivity
CC[C@H](C)[C@H](N)C(=O)N[C@@H](CO)C(=O)N[C@@H](Cc1ccccc1)C(=O)N[C@@]1(C)CCC/C=C\CCC[C@@](C)(C(=O)N[C@@H](Cc2ccc(O)cc2)C(=O)N[C@@H](Cc2ccc(O)cc2)C(=O)NCC(=O)N[C@@H](CCC(=O)O)C(=O)N[C@@H](CCCCN)C(N)=O)NC(=O)[C@H](CC(C)C)NC(=O)[C@H](CC(C)C)NC(=O)[C@H](CCC(=O)O)NC1=O [NYAD-24] (H-ISF[S5]ELL[S5]YYGEK-NH2; staple (Z) 4-8; N-terminus and C-terminus assumed) | 13.8 ± 3.57 | –
CC[C@H](C)[C@H](N)C(=O)N[C@H](C(=O)N[C@@H](Cc1ccccc1)C(=O)N[C@@]1(C)CCC/C=C\CCC[C@@](C)(C(=O)N[C@@H](Cc2ccc(O)cc2)C(=O)N[C@@H](Cc2ccc(O)cc2)C(=O)NCC(=O)N[C@@H](CCCNC(=N)N)C(N)=O)NC(=O)[C@H](CC(C)C)NC(=O)[C@H](Cc2c[nH]c3ccccc23)NC(=O)[C@H](CC(=O)O)NC1=O)[C@@H](C)O [NYAD-31] (H-ITF[S5]DWL[S5]YYGR-NH2; staple (Z) 4-8; N-terminus and C-terminus assumed) | 13.5 ± 1.4 | –
CC[C@H](C)[C@H](N)C(=O)N[C@@H](CO)C(=O)N[C@@H](Cc1ccccc1)C(=O)N[C@]1(C)CCCCCC/C=C\CCC[C@@](C)(C(=O)N[C@@H](CCCNC(=N)N)C(N)=O)NC(=O)[C@H](Cc2ccc(O)cc2)NC(=O)[C@H](Cc2ccc(O)cc2)NC(=O)[C@H](CCC(N)=O)NC(=O)[C@H](CC(C)C)NC(=O)[C@H](Cc2c[nH]c3ccccc23)NC(=O)[C@H](CCC(=O)O)NC1=O [NYAD-33] (H-ISF[R8]EWLQYY[S5]R-NH2; staple (Z) 4-11; N-terminus and C-terminus assumed) | 3.37 ± 0.06 | viral infectivity of particles released by treated cells (HIV-IIIB; 7 μM): very little to no viral infectivity; viral infectivity of particles released by treated cells (HIV-IIIB; 14 μM): very little to no viral infectivity; infectivity respect to the control (HIV-IIIB; about 7 μM): 25%
CC[C@H](C)[C@H](N)C(=O)N[C@@H](CO)C(=O)N[C@@H](Cc1ccccc1)C(=O)N[C@@]1(C)CCC/C=C\CCC[C@@](C)(C(=O)N[C@@H](Cc2ccc(O)cc2)C(=O)N[C@@H](Cc2ccc(O)cc2)C(=O)NCC(=O)N[C@@H](CCCNC(=N)N)C(=O)N[C@@H](CO)C(=O)NCC(=O)N[C@@H](CO)C(N)=O)NC(=O)[C@H](CC(C)C)NC(=O)[C@H](CC(C)C)NC(=O)[C@H](CCC(=O)O)NC1=O [NYAD-34] (H-ISF[S5]ELL[S5]YYGRSGS-NH2; staple (Z) 4-8; N-terminus and C-terminus assumed) | 12.7 ± 0.9 | –
CC[C@H](C)[C@H](N)C(=O)N[C@@H](CO)C(=O)N[C@@H](Cc1ccccc1)C(=O)N[C@@]1(C)CCC/C=C\CCC[C@@](C)(C(=O)N[C@@H](Cc2ccc(O)cc2)C(=O)N[C@@H](Cc2ccc(O)cc2)C(=O)NCC(=O)N[C@@H](CCC(=O)O)C(=O)N[C@@H](CO)C(=O)NCC(=O)N[C@@H](CO)C(N)=O)NC(=O)[C@H](CC(C)C)NC(=O)[C@H](CC(C)C)NC(=O)[C@H](CCC(=O)O)NC1=O [NYAD-35] (H-ISF[S5]ELL[S5]YYGESGS-NH2; staple (Z) 4-8; N-terminus and C-terminus assumed) | 4.51 ± 0.14 | –
